Measurements: ChEMBL document CHEMBL5537158, “Polymyxins with Potent Antibacterial Activity against Colistin-Resistant Pathogens: Fine-Tuning Hydrophobicity with Unnatural Amino Acids” (J Med Chem, 2024)
Values after ≈ are worked out from the molar mass of the structure shown. Positions of bridges follow the written chain, without caps; N, C: chain ends. Non-standard residues stand in square brackets, D forms with d. Residues, ends and D or L forms follow the SMILES beside them. *: point of attachment. Phe(3,4,5-F3) = N[C@@H](Cc1cc(F)c(F)c(F)c1)C(=O)O; dPhe(3,4,5-F3) = N[C@H](Cc1cc(F)c(F)c(F)c1)C(=O)O; dPhe(4-CF3) = N[C@H](Cc1ccc(C(F)(F)F)cc1)C(=O)O; dPhe(F5) = N[C@H](Cc1c(F)c(F)c(F)c(F)c1F)C(=O)O; Benzoyl(4-Ph) = O=C(c1ccc(-c2ccccc2)cc1)*; Phe(4-Br) = N[C@@H](Cc1ccc(Br)cc1)C(=O)O; Phe(4-Cl) = N[C@@H](Cc1ccc(Cl)cc1)C(=O)O; dPhe(4-Cl) = N[C@H](Cc1ccc(Cl)cc1)C(=O)O; Phe(4-F) = N[C@@H](Cc1ccc(F)cc1)C(=O)O; dPhe(3-F) = N[C@H](Cc1cccc(F)c1)C(=O)O; dPhe(4-F) = N[C@H](Cc1ccc(F)cc1)C(=O)O; dPhe(2-F) = N[C@H](Cc1ccccc1F)C(=O)O; hhPhe = N[C@@H](CCCc1ccccc1)C(=O)O; hPhe = N[C@@H](CCc1ccccc1)C(=O)O; Octanoyl = CCCCCCCC(=O)*; Dab = NCC[C@H](N)C(=O)O

How the values were obtained:
Acinetobacter baumannii [1] = test: Antimicrobial activity against Acinetobacter baumannii ATCC 19606 assessed as bacterial growth inhibition incubated for 20 hrs by broth microdilution method; type: functional
[2] = Hemolytic activity in human RBC at 400 ug/ml after 1 hr; type: toxicity, cell-based, Erythrocyte; conditions: red blood cells (erythrocytes), at 400 µg/mL, read-out: Activity
Acinetobacter baumannii [3] = test: Antimicrobial activity against colistin resistant Acinetobacter baumannii ATCC 3658/17 assessed as bacterial growth inhibition incubated for 20 hrs by broth microdilution method; type: functional
Escherichia coli = test: Antibacterial activity against Escherichia coli ATCC 25922 assessed as bacterial growth inhibition incubated for 20 hrs by broth microdilution method; type: functional
Pseudomonas aeruginosa = test: Antimicrobial activity against Pseudomonas aeruginosa PAO1 assessed as bacterial growth inhibition incubated for 20 hrs by broth microdilution method; type: functional

CC(=O)N[C@H](Cc1ccc(F)cc1)C(=O)N[C@@H](CCN)C(=O)N[C@H](C(=O)N[C@@H](CCN)C(=O)N[C@H]1CCNC(=O)[C@H]([C@@H](C)O)NC(=O)[C@H](CCN)NC(=O)[C@H](CCN)NC(=O)[C@H](CC(C)C)NC(=O)[C@@H](Cc2ccccc2)NC(=O)[C@@H](CCN)NC1=O)[C@H](C)O
MIC (Acinetobacter baumannii [1]): 2 µg/mL (≈ 1.57 µM) | hemolysis at 1 h, 400 ug/ml [2]: < 10% | MIC (Acinetobacter baumannii [3]): 16 µg/mL (≈ 12.6 µM) | MIC (Escherichia coli): 0.25 µg/mL (≈ 0.197 µM)

CCCCCCCC(=O)N[C@@H](CCN)C(=O)N[C@H](C(=O)N[C@@H](CCN)C(=O)N[C@H]1CCNC(=O)[C@H]([C@@H](C)O)NC(=O)[C@H](CCN)NC(=O)[C@H](CCN)NC(=O)[C@H](Cc2cc(F)c(F)c(F)c2)NC(=O)[C@@H](CC(C)C)NC(=O)[C@H](CCN)NC1=O)[C@@H](C)O (Octanoyl-[Dab]T[Dab][Dab][Dab][dL][Phe(3,4,5-F3)][Dab][Dab]T; lactam 4-C)
MIC (Acinetobacter baumannii [1]): < 0.125 µg/mL | MIC (Pseudomonas aeruginosa): 0.25 µg/mL (≈ 0.201 µM) | MIC (Acinetobacter baumannii [3]): 2 µg/mL (≈ 1.61 µM)

CCCCCCCC(=O)N[C@@H](CCN)C(=O)N[C@H](C(=O)N[C@@H](CCN)C(=O)N[C@H]1CCNC(=O)[C@H]([C@@H](C)O)NC(=O)[C@H](CCN)NC(=O)[C@H](CCN)NC(=O)[C@H](Cc2ccc(Br)cc2)NC(=O)[C@@H](CC(C)C)NC(=O)[C@H](CCN)NC1=O)[C@@H](C)O (Octanoyl-[Dab]T[Dab][Dab][Dab][dL][Phe(4-Br)][Dab][Dab]T; lactam 4-C)
MIC (Acinetobacter baumannii [1]): 0.25 µg/mL (≈ 0.197 µM) | MIC (Pseudomonas aeruginosa): 0.25 µg/mL (≈ 0.197 µM) | MIC (Acinetobacter baumannii [3]): 1 µg/mL (≈ 0.788 µM)

CCCCCCCC(=O)N[C@@H](CCN)C(=O)N[C@H](C(=O)N[C@@H](CCN)C(=O)N[C@H]1CCNC(=O)[C@H]([C@@H](C)O)NC(=O)[C@H](CCN)NC(=O)[C@H](CCN)NC(=O)[C@H](Cc2ccc(Cl)cc2)NC(=O)[C@@H](CC(C)C)NC(=O)[C@H](CCN)NC1=O)[C@@H](C)O (Octanoyl-[Dab]T[Dab][Dab][Dab][dL][Phe(4-Cl)][Dab][Dab]T; lactam 4-C)
hemolysis at 1 h, 400 ug/ml [2]: < 10%

CCCCCCCC(=O)N[C@@H](CCN)C(=O)N[C@H](C(=O)N[C@@H](CCN)C(=O)N[C@H]1CCNC(=O)[C@H]([C@@H](C)O)NC(=O)[C@H](CCN)NC(=O)[C@H](CCN)NC(=O)[C@H](Cc2ccc(F)cc2)NC(=O)[C@@H](CC(C)C)NC(=O)[C@H](CCN)NC1=O)[C@@H](C)O (Octanoyl-[Dab]T[Dab][Dab][Dab][dL][Phe(4-F)][Dab][Dab]T; lactam 4-C)
hemolysis at 1 h, 400 ug/ml [2]: < 10%

CCCCCCCC(=O)N[C@@H](CCN)C(=O)N[C@H](C(=O)N[C@@H](CCN)C(=O)N[C@H]1CCNC(=O)[C@H]([C@@H](C)O)NC(=O)[C@H](CCN)NC(=O)[C@H](CCN)NC(=O)[C@H](CCc2ccccc2)NC(=O)[C@@H](CC(C)C)NC(=O)[C@H](CCN)NC1=O)[C@@H](C)O (Octanoyl-[Dab]T[Dab][Dab][Dab][dL][hPhe][Dab][Dab]T; lactam 4-C)
hemolysis at 1 h, 400 ug/ml [2]: < 10%

CCCCCCCC(=O)N[C@@H](CCN)C(=O)N[C@H](C(=O)N[C@@H](CCN)C(=O)N[C@H]1CCNC(=O)[C@H]([C@@H](C)O)NC(=O)[C@H](CCN)NC(=O)[C@H](CCN)NC(=O)[C@H](CCCc2ccccc2)NC(=O)[C@@H](CC(C)C)NC(=O)[C@H](CCN)NC1=O)[C@@H](C)O (Octanoyl-[Dab]T[Dab][Dab][Dab][dL][hhPhe][Dab][Dab]T; lactam 4-C)
hemolysis at 1 h, 400 ug/ml [2]: < 10%

CCCCCCCC(=O)N[C@@H](CCN)C(=O)N[C@H](C(=O)N[C@@H](CCN)C(=O)N[C@H]1CCNC(=O)[C@H]([C@@H](C)O)NC(=O)[C@H](CCN)NC(=O)[C@H](CCN)NC(=O)[C@H](CC(C)C)NC(=O)[C@@H](Cc2ccccc2F)NC(=O)[C@H](CCN)NC1=O)[C@@H](C)O (Octanoyl-[Dab]T[Dab][Dab][Dab][dPhe(2-F)]L[Dab][Dab]T; lactam 4-C) [listing 1 of 2 here]
hemolysis at 1 h, 400 ug/ml [2]: < 10%

CCCCCCCC(=O)N[C@@H](CCN)C(=O)N[C@H](C(=O)N[C@@H](CCN)C(=O)N[C@H]1CCNC(=O)[C@H]([C@@H](C)O)NC(=O)[C@H](CCN)NC(=O)[C@H](CCN)NC(=O)[C@H](CC(C)C)NC(=O)[C@@H](Cc2ccccc2F)NC(=O)[C@H](CCN)NC1=O)[C@@H](C)O (Octanoyl-[Dab]T[Dab][Dab][Dab][dPhe(2-F)]L[Dab][Dab]T; lactam 4-C) [listing 2 of 2 here]
MIC (Acinetobacter baumannii [1]): 0.06 µg/mL (≈ 0.0497 µM) | MIC (Acinetobacter baumannii [3]): 0.5 µg/mL (≈ 0.414 µM) | MIC (Escherichia coli): 0.123 µg/mL (≈ 0.102 µM)

CCCCCCCC(=O)N[C@@H](CCN)C(=O)N[C@H](C(=O)N[C@@H](CCN)C(=O)N[C@H]1CCNC(=O)[C@H]([C@@H](C)O)NC(=O)[C@H](CCN)NC(=O)[C@H](CCN)NC(=O)[C@H](CC(C)C)NC(=O)[C@@H](Cc2cc(F)c(F)c(F)c2)NC(=O)[C@H](CCN)NC1=O)[C@@H](C)O (Octanoyl-[Dab]T[Dab][Dab][Dab][dPhe(3,4,5-F3)]L[Dab][Dab]T; lactam 4-C)
hemolysis at 1 h, 400 ug/ml [2]: < 10%

CCCCCCCC(=O)N[C@@H](CCN)C(=O)N[C@H](C(=O)N[C@@H](CCN)C(=O)N[C@H]1CCNC(=O)[C@H]([C@@H](C)O)NC(=O)[C@H](CCN)NC(=O)[C@H](CCN)NC(=O)[C@H](CC(C)C)NC(=O)[C@@H](Cc2cccc(F)c2)NC(=O)[C@H](CCN)NC1=O)[C@@H](C)O (Octanoyl-[Dab]T[Dab][Dab][Dab][dPhe(3-F)]L[Dab][Dab]T; lactam 4-C)
hemolysis at 1 h, 400 ug/ml [2]: < 10%

CCCCCCCC(=O)N[C@@H](CCN)C(=O)N[C@H](C(=O)N[C@@H](CCN)C(=O)N[C@H]1CCNC(=O)[C@H]([C@@H](C)O)NC(=O)[C@H](CCN)NC(=O)[C@H](CCN)NC(=O)[C@H](CC(C)C)NC(=O)[C@@H](Cc2ccc(C(F)(F)F)cc2)NC(=O)[C@H](CCN)NC1=O)[C@@H](C)O (Octanoyl-[Dab]T[Dab][Dab][Dab][dPhe(4-CF3)]L[Dab][Dab]T; lactam 4-C)
hemolysis at 1 h, 400 ug/ml [2]: < 10%

CCCCCCCC(=O)N[C@@H](CCN)C(=O)N[C@H](C(=O)N[C@@H](CCN)C(=O)N[C@H]1CCNC(=O)[C@H]([C@@H](C)O)NC(=O)[C@H](CCN)NC(=O)[C@H](CCN)NC(=O)[C@H](CC(C)C)NC(=O)[C@@H](Cc2ccc(Cl)cc2)NC(=O)[C@H](CCN)NC1=O)[C@@H](C)O (Octanoyl-[Dab]T[Dab][Dab][Dab][dPhe(4-Cl)]L[Dab][Dab]T; lactam 4-C)
hemolysis at 1 h, 400 ug/ml [2]: < 10%

CCCCCCCC(=O)N[C@@H](CCN)C(=O)N[C@H](C(=O)N[C@@H](CCN)C(=O)N[C@H]1CCNC(=O)[C@H]([C@@H](C)O)NC(=O)[C@H](CCN)NC(=O)[C@H](CCN)NC(=O)[C@H](CC(C)C)NC(=O)[C@@H](Cc2ccc(F)cc2)NC(=O)[C@H](CCN)NC1=O)[C@@H](C)O (Octanoyl-[Dab]T[Dab][Dab][Dab][dPhe(4-F)]L[Dab][Dab]T; lactam 4-C)
hemolysis at 1 h, 400 ug/ml [2]: < 10%

CCCCCCCC(=O)N[C@@H](CCN)C(=O)N[C@H](C(=O)N[C@@H](CCN)C(=O)N[C@H]1CCNC(=O)[C@H]([C@@H](C)O)NC(=O)[C@H](CCN)NC(=O)[C@H](CCN)NC(=O)[C@H](CC(C)C)NC(=O)[C@@H](Cc2c(F)c(F)c(F)c(F)c2F)NC(=O)[C@H](CCN)NC1=O)[C@@H](C)O (Octanoyl-[Dab]T[Dab][Dab][Dab][dPhe(F5)]L[Dab][Dab]T; lactam 4-C)
hemolysis at 1 h, 400 ug/ml [2]: < 10%

CC[C@H](C)[C@@H]1NC(=O)[C@@H](CC(C)C)NC(=O)[C@H](CCN)NC(=O)[C@@H](NC(=O)[C@@H](CO)NC(=O)[C@@H](NC(=O)[C@H](CCN)NC(=O)c2ccc(-c3ccccc3)cc2)[C@@H](C)O)CCNC(=O)[C@H](CC(C)C)NC(=O)[C@H](CCN)NC(=O)[C@H](CCN)NC1=O ({Benzoyl(4-Ph)}-[Dab]T[dS][Dab][Dab][dL]I[Dab][Dab]L; lactam 4-C)
hemolysis at 1 h, 400 ug/ml [2]: < 10%
